Results taken from patent US20220135547A1, “HETEROCYCLIC LOW-MOLECULAR SAPP MIMETICS, A PHARMACEUTICAL COMPOSITION AND METHODS FOR PRODUCING AND USING SAME” (priority 2010, published 2022).

Tested on: 1-3 days old chicken memory
Assay: one-trial passive avoidance learning task in chicks (weak training, test 24 hours after training)
Assay type: in vivo
Details: for dosage at which the maximum effect was observed: weak training, chicks
Experimental: The method of one-trial passive avoidance learning task has been used in order to investigate the compounds action on 1-3 days old chicken memory. This is the basic method using for investigation the mechanisms of memory formation. Cross chickens (males) “Ptichnoe” were used in experiments. The animals were delivered at the day of hatching and were kept in pairs in the cages which measured 20×25×20 cm, with constant access to water and feed, at a temperature 28° C. and a light cycle of 12:12 hours. The minimal adaptation time was two hours.
The compounds were dissolved in sterile saline. Intraperitoneal injections of 0.1 ml were used for systemic administration. Bilateral intracranial injections were administrated to the lateral ventricles with […] microsyringe («Hamilton») using plastic headholder. The volume of injections was […] for hemisphere. To control the localizations of injections the monitoring of the surface of skull and brain were carried out after the experiment and decapitation. Control groups received saline of the same volume.
The experiments were conducted according the following scheme: 20 minutes before training the animals were pretrained by being offered two neutral (wet with water) […] fixed to a rod. For further training chicks that pecked each bead within first 10 sec were used. Chicks were offered an aversive bead wet with pungent solution (10% solution of methylanthranilate in ethanol). […] Testing was conducted 24 hours after training by offering within 10 seconds a similar but dry aversive bead, and then—a neutral bead. The avoidance of aversive bead was estimated as a long-term memory.

[1] = administrated either immediately before training, or 4 hours after completion of the training

Structure (SMILES)	effect on memory [1]	dosage at which the maximum effect was observed (10 min training (route not given))	dosage at which the maximum effect was observed, per animal (equivalent of 0.1 mg/kg, 10 min training)	dosage at which the maximum effect was observed (intracranial injection 10-30 min before training)	effect on memory (oral administration 30 min before weak treatment, dosage 0.1 to 1.0 mg/kg)
COC(=O)c1ccc(C(NCCc2ccncc2)C(=O)NCCc2ccncc2)cc1 (stereo not drawn) [ACB-0002, Methyl 4-{2-oxo-1,2-bis[(2-pyridine-4-ylethyl)amino]ethyl}benzoate]	may enhance memory				
O=C(NCCc1ccncc1)C(NCCc1ccncc1)c1ccc2c(c1)OCO2 (stereo not drawn) [ACB-0005, 2-(1,3-benzodioxole-5-yl)-N-(2-pyridine-4-ylethyl)-2-[(2-pyridine-4-ylethyl)-amino]acetamid]	may enhance memory	0.1 mg/kg	4 µg per animal	5 mg	stimulating effect on memory
